Test results reported in patent US20060058388A1, “Methods for treating ocular diseases via introxide and or polyhydroxy acid containing compounds” (priority 2003, published 2006).

Columns and labels:
[1] = test system: human skin fibroblasts containing the human elastin promoter linked to a luciferase reporter gene construct; assay: Neutral Red Cytotoxicity/Phototoxicity Assay
Method: Immortalized human skin fibroblasts containing the human elastin promoter linked to a luciferase reporter gene construct were seeded in 96-well plates at a density of 7,500 cells per well (doubling time ˜30 hours). Cells were grown in 75 cm^2 tissue culture flasks in MEM (without phenol red) supplemented with 10% FBS, 25 mM HEPES, 2 mM l-glutamine, 1% nonessential amino acids, 50 μg/mL Gentamycin, and 5 μg/mL Zeocin. Cell cultures were incubated in a 37° C. incubator (containing 5% CO2) when not being manipulated or irradiated. Cell cultures were washed with Phosphate Buffered Saline (PBS) with Ca^++ and Mg^++ when media or compounds were removed and before ultraviolet radiation (UVR).
Gluconolactone was prepared in PBS. Concentrations of 0.5, 1.0, 2.5, 5.0, 7.5, 10.0, 12.5, and 25% (w/v) were prepared and adjusted to a pH of 7.2. Gluconolactone was incubated 15 minutes prior to and in contact with cell cultures during UV-irradiation.
4-Hydroxy-tempo (tempol) was prepared in PBS. Concentrations of tempol of 10, 25, 50, 62.5, 100, 125, 250, and 500 mM were prepared and adjusted to a pH of 7.2. Tempol was incubated 15 minutes prior to and in contact with cell cultures during UV-irradiation.
Cell cultures were UV-irradiated with Westinghouse 40-Watt fluorescent sunlamps (FS-40 lamps) with doses of either 2 or 5 mJ/cm^2, based on a PMA2100 radiometer (Solar light Company, Philadelphia, Pa.) equipped with a PMA2101 erythema weighted detector.
Fifteen hours after UV-irradiation with the FS-40 lamps, cell cultures were washed with PBS and Neutral Red Medium (Neutral Red dye+supplemented MEM) was added for a 3 hours (in 37° C. incubators). After the incubation period, cells are washed with PBS and the Neutral Red Desorb solution (50% Ethanol, 49% distilled water, 1% Glacial Acetic Acid) was added. Plates are shaken for 10 minutes at 500 rpm and then the absorption was read at 540 nm using THERMOmax plate reader and SOFTmax PRO software.

[2] = test system: human elastin promoter linked to a luciferase reporter gene construct in human skin fibroblasts; assay: human elastin promoter/luciferase assay (UV-induced promoter induction); assay type: cell-based
Method: Thus, gluconolactone protects against UV-induced gene induction in cells containing the human elastin promoter/luciferase construct. […] The ED50 for cell cultures with tempol but not receiving any ultraviolet radiaiton was approximately 100 mM.
Gluconolactone was prepared in PBS.
4-Hydroxy-tempo (tempol) was prepared in PBS.

Row | SMILES | phototoxicity or cytotoxicity [1] | ED50 for phototoxicity ([1]; human, pH 7.2) | protection against UV-induced promoter induction ([2]; human elastin promoter/luciferase fibroblasts, UV-irradiated) | protection against toxicity ([1]; neutral red assay, increasing ultraviolet doses) | ED50 for cell cultures ([1]; not receiving any ultraviolet radiation) | ED50 for cell cultures ([1]; ultraviolet radiation dose 2 mJ/cm^2) | ED50 for cell cultures ([1]; ultraviolet radiation dose 5 mJ/cm^2) [mM] | protection against toxicity ([2]; human elastin promoter/luciferase assay, increasing ultraviolet doses)
1 | O=C1O[C@H](CO)[C@@H](O)[C@H](O)[C@H]1O [Glucolactone, Gluconolactone] | did not demonstrate significant phototoxicity or cytotoxicity | approximately 102 g/L | approximately 50% | – | – | – | – | –
2 | CC1(C)CC(O)CC(C)(C)N1[O] [tempol, 4-Hydroxy-tempo] | – | – | – | over 50% | approximately 100 mM | approximately 150 mM | ~250 | over 50%
